Results published in patent US8404672B2, “Substituted heterocyclic compounds” (Bristol-Meyers Squibb Company, priority 2009, dated 2013).

How the values were obtained:
human S1P1 = biological target: T1, human S1P1 (Homo sapiens, UniProt P21453); experiment: S1P1 Binding Assay (33P-S1P radioligand competition, CHO cell membranes); conditions: membranes from CHO cells expressing human S1P1; 0.03 nM 33P-S1P; 60 min room temperature
T1 construct: expressed in transfected cells; host or cells: CHO cells
Procedure: Membranes were prepared from CHO cells expressing human S1P1. Cells were dissociated in buffer containing 20 mM HEPES, pH 7.5, 50 mM NaCl, 2 mM EDTA and Protease Inhibitor cocktail (Roche), and disrupted on ice using the Polytron homogenizer. The homogenate was centrifuged at 20,000 rpm (48,000 g) and the supernatant was discarded. The membrane pellets were resuspended in buffer containing 50 mM HEPES, pH 7.5, 100 mM NaCl, 1 mM MgCl2, 2 mM EDTA and stored in aliquots at −80° C. after protein concentration determination.
Membranes ([…]) and 0.03 nM final concentration of ^33P—S1P ligand (1 mCi/ml, American Radiolabeled Chemicals) were added to the compound plates. Binding was performed for 60 min at room temperature, terminated by collecting the membranes onto GF/B filter plates, and radioactivity was measured by TOPCOUNT®. The competition data of the test compounds over a range of concentrations was plotted as percentage inhibition of radioligand specific binding. The IC50 is defined as the concentration of competing ligand needed to reduce specific binding by 50%.
Compounds of the present invention and Comparative Compound A were tested in the S1P1 binding assay described hereinabove and the results rounded to two digits, shown in Table A were obtained. In some instances, the value is an average of multiple experiments where N is the number of experiments conducted that provided satisfactory dose response curves. When more than one batch of an example was tested, the value presented is from the batch which allowed a comparison of GTPγS S1P1 and GTPγS S1P3 in Method A (Data shown in Table B). Data was not averaged across different batches of an example compound.

[1] = biological target: T2, S1P3 (membranes from S1P3 transfected CHO cells) (Homo sapiens, UniProt Q99500); experiment: Method B: Receptor [35S] GTPγS SPA Binding Assay, S1P3; type: biochemical
T2 construct: expressed in transfected cells; host or cells: CHO cells
Procedure: Method B: Receptor [35S] GTPγS SPA Binding Assays
Membranes prepared from S1P1 or S1P3 transfected CHO cells ([…]) were incubated in 96-well white plates (CORNING® 3693) with test compounds diluted in DMSO, in 50 μl of reaction mixture containing 7.5 μl WGA-PVT beads (20 mg/ml), and 5 μM GDP, 20 mM HEPES pH 7.4, 100 mM NaCl, 1 mM EDTA, 5 mM MgCl2, 10 μg/ml saponin, 0.1% BSA, and 1 μM leupeptin. The assay was initiated with the addition of […] of 0.2 nM [^35S]-GTPγS (1250 Ci/mmol; NEN) in assay buffer. After 90 min incubation at room temperature, spin the plate at 1000 rpm for 5 min. The bound radionuclides were measured at TOPCOUNT®, expressed as % response relative to S1P (1 μM) activation. Data was analyzed using the four parameter logistic equation in Excel. The four parameters in the equation, Y=A+((B−A)/(1+((EC50/X)^D))), are described as following: A is the Y value (agonist activity) at the bottom plateau; B is the Y value at the top plateau; EC50 is the X value (agonist concentration) when the response is halfway between bottom and top; D is Hill coefficient. Curves were not generated for compounds having Ymax values were below 50%.
Compounds of the present invention and Comparative Compound A were tested in the Receptor [35S] GTPγS Binding Assays (Method A) and Receptor [35S] In some instances, the value is an average of multiple experiments where N is the number of experiments conducted that provided satisfactory dose response curves. When more than one batch of an example was tested, the value presented is from a batch which allowed a comparison of GTPγS S1P1 and GTPγS S1P3 in which the most number of experiments were performed. Preferably, the same batch was examined in Method A and Method B. Data was not averaged across different batches of an example compound.

circulating lymphocytes = experiment: Blood Lymphocyte Reduction Assay (BLR) in mice; type: in vivo; conditions: BALB/c mice, oral, vs vehicle group
Procedure: Blood Lymphocyte Reduction Assay (BLR) in Rodents
Lewis rats or BALB/c mice were dosed orally with test article (as a solution or suspension in the vehicle) or vehicle alone (polyethylene glycol 300, “PEG300”). Blood was drawn at 4 hr and 24 h by retro-orbital bleeding. Blood lymphocyte counts were determined on an ADVIA® 120 Hematology Analyzer (Siemens Healthcare Diagnostics). The results were measured as a reduction in the percentage of circulating lymphocytes as compared to the vehicle treated group at the 4 hr and 24 hr measurement. The results represent the average results of all animals within each treatment group (n=3-4).
A compound of the present invention was tested in the Blood Lymphocyte Reduction assay (BLR) described hereinabove and the results are shown in Table D for rats and Table E for mice.

[2] = test system: rat adjuvant-induced arthritis model (hind paw volume); experiment: Rat Adjuvant Induced Arthritis Assay (AA); type: in vivo, Male Lewis rats; conditions: for Paw Swelling on Day 20 (Mean): vehicle mean 1.11
Procedure: Rat Adjuvant Induced Arthritis Assay (AA)
Male Lewis rats (150-175 g; Harlan, n=8 treatment group) were immunized at the base of the tail with 100 μl of 10 mg/ml freshly ground Mycobacterium butyricum (Difco Laboratories) in incomplete Freund's adjuvant (sigma). Animals were dosed once daily with the test article (as a solution or suspension in the vehicle) or vehicle alone (polyethylene glycol 300, “PEG300”) starting from the day of immunization. The volumes of their hind paws were measured in a water displacement plethysmometer (Ugo Basile, Italy). The baseline paw measurements were taken before onset of the disease (between day 7 to day 10). The paw measurements were then taken three times a week until the end of the study on day 20. All procedures involving animals were reviewed and approved by the Institutional Animal Care Use Committee.
A compound of the present invention was tested in the Rat Adjuvant Induced Arthritis assay described hereinabove and the results are shown in Table F.

T1 sequence (P21453 whole entry): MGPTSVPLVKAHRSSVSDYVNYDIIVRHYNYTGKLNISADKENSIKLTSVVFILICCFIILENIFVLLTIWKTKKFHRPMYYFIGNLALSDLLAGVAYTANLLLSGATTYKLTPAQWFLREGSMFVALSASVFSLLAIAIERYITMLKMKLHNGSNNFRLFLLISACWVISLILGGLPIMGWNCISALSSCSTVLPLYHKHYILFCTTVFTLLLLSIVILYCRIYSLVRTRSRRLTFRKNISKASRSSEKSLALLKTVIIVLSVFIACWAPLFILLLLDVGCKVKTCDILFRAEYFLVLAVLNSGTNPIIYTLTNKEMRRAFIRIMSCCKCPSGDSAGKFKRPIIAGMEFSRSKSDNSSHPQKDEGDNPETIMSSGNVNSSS
T2 sequence (Q99500 whole entry): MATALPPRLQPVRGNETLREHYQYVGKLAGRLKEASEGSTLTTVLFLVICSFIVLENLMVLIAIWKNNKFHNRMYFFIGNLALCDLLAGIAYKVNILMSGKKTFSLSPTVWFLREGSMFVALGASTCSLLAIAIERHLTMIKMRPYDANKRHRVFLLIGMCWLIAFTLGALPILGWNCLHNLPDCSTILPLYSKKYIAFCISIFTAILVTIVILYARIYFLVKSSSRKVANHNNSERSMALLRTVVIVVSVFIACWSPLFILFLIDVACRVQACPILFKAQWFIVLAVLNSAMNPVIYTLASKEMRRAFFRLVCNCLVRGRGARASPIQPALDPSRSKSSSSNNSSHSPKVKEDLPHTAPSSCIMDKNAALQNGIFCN

- IC50 (human S1P1): 0.00021 µM
- EC50 [1]: 6.2 µM
SMILES: O=C(O)C1CN(Cc2ccc(-c3noc(-c4onc(-c5ccccn5)c4C(F)(F)F)n3)cc2)C1 [Example 1, 1-(4-(5-(3-(Pyridin-2-yl)-4-(trifluoromethyl)isoxazol-5-yl)-1,2,4-oxadiazol-3-yl)benzyl)azetidine-3-carboxylic acid]
- % reduction in lymphocytes at 4 hr. (circulating lymphocytes; 0.008 mg/kg): 13%
- % reduction in lymphocytes at 24 hr. (circulating lymphocytes; 0.008 mg/kg): 8%
- % reduction in lymphocytes at 4 hr. (circulating lymphocytes; 0.04 mg/kg): 67%
- % reduction in lymphocytes at 24 hr. (circulating lymphocytes; 0.04 mg/kg): 39%
- % reduction in lymphocytes at 4 hr. (circulating lymphocytes; 0.2 mg/kg): 82%
- % reduction in lymphocytes at 24 hr. (circulating lymphocytes; 0.2 mg/kg): 74%
- % reduction in lymphocytes at 4 hr. (circulating lymphocytes; 1.0 mg/kg): 83%
- % reduction in lymphocytes at 24 hr. (circulating lymphocytes; 1.0 mg/kg): 77%
- Paw Swelling on Day 20 (Mean) ([2]; 0.03 mg/kg once daily from day of immunization): 1.48 mL
- Paw Swelling on Day 20 (Mean) ([2]; 0.1 mg/kg once daily from day of immunization): 1.41 mL
- Paw Swelling on Day 20 (Mean) ([2]; 0.5 mg/kg once daily from day of immunization): 0.72 mL
- Paw Swelling on Day 20 (Mean) ([2]; 3.0 mg/kg once daily from day of immunization): 0.07 mL
- disease progression as measured by paw swelling (in words) ([2]; Lewis rat, prophylactic oral dosing): inhibits disease progression
